Test results taken from paper PMC4051630, “A Comparison of Protein Kinases Inhibitor Screening Methods Using Both Enzymatic Activity and Binding Affinity Determination” (PLoS ONE, 2014).

What was measured:
Assay in all cases: Differential Scanning Fluorimetry (DSF) Tm shift
Type in all cases: binding
[1] = target: T1, AKT3 Catalytic Domain (Homo sapiens, UniProt Q9Y243); conditions: 2 µM protein, 10 µM inhibitor, average of 3 experiments, each in duplicate
T1 construct: AKT3 (Q9Y243); CD; His-tag; made in house; host or cells: Escherichia coli

[2] = target: T2, CDK2 + Cyclin A (Homo sapiens, UniProt P24941); conditions: CDK2 + Cyclin A; 2 µM protein, 10 µM inhibitor; average of 3 experiments, each in duplicate
T2 construct: CDK2 (P24941); 1–299; His-tag; made in house; host or cells: Escherichia coli

[3] = target: T3, CDK2 + Cyclin E (Homo sapiens, UniProt P24941); conditions: CDK2 + Cyclin E; 2 µM protein, 10 µM inhibitor; average of 3 experiments, each in duplicate
T3 construct: CDK2 (P24941); 1–299; His-tag; made in house; host or cells: Escherichia coli

[4] = target: T4, CHK2 Catalytic Domain (Homo sapiens, UniProt O96017); conditions: 2 µM protein, 10 µM inhibitor, average of 3 experiments, each in duplicate
T4 construct: For all of them, we expressed and purified the catalytic domain separately; His-tag; made in house; host or cells: Escherichia coli

[5] = target: T5, DMPK Catalytic Domain (Homo sapiens, UniProt Q09013); conditions: 2 µM protein, 10 µM inhibitor, average of 3 experiments, each in duplicate
T5 construct: For all of them, we expressed and purified the catalytic domain separately; His-tag; made in house; host or cells: Escherichia coli
T5 sequence (Q09013 71-339 limits assumed): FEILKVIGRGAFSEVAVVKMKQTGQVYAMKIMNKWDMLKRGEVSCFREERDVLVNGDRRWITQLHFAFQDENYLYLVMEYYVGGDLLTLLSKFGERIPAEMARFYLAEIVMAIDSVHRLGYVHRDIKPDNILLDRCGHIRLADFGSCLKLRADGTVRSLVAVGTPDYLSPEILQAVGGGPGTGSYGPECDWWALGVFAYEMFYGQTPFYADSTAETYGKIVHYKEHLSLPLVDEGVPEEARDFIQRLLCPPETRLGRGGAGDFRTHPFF

[6] = target: T6, FAK2 Catalytic Domain (Homo sapiens, UniProt Q14289); conditions: 2 µM protein, 10 µM inhibitor, average of 3 experiments, each in duplicate
T6 construct: For all of them, we expressed and purified the catalytic domain separately; His-tag; made in house; host or cells: Escherichia coli

[7] = target: T7, FES Catalytic Domain+SH2 (Homo sapiens, UniProt P07332); conditions: 2 µM protein, 10 µM inhibitor, average of 3 experiments, each in duplicate
T7 construct: for 8, we also made a longer version containing one or more additional domains; His-tag; made in house; host or cells: Escherichia coli

[8] = target: T8, FES Catalytic Domain (Homo sapiens, UniProt P07332); conditions: 2 µM protein, 10 µM inhibitor, average of 3 experiments, each in duplicate
T8 construct: For all of them, we expressed and purified the catalytic domain separately; His-tag; made in house; host or cells: Escherichia coli

[9] = target: T9, PAK4 Catalytic Domain+PBD (Homo sapiens, UniProt O96013); conditions: 2 µM protein, 10 µM inhibitor, average of 3 experiments, each in duplicate
T9 construct: for 8, we also made a longer version containing one or more additional domains; His-tag; made in house; host or cells: Escherichia coli

[10] = target: T10, PAK4 Catalytic Domain (Homo sapiens, UniProt O96013); conditions: 2 µM protein, 10 µM inhibitor, average of 3 experiments, each in duplicate
T10 construct: For all of them, we expressed and purified the catalytic domain separately; His-tag; made in house; host or cells: Escherichia coli

[11] = target: T11, PAK7 Catalytic Domain (Homo sapiens, UniProt Q9P286); conditions: 2 µM protein, 10 µM inhibitor, average of 3 experiments, each in duplicate
T11 construct: For all of them, we expressed and purified the catalytic domain separately; His-tag; made in house; host or cells: Escherichia coli

[12] = target: SRC Catalytic Domain+SH2+SH3 (Homo sapiens, UniProt P12931); conditions: 2 µM protein, 10 µM inhibitor, average of 3 experiments, each in duplicate
[13] = target: T12, STK3 Catalytic domain+SARAH (Homo sapiens, UniProt Q13188); conditions: 2 µM protein, 10 µM inhibitor, average of 3 experiments, each in duplicate
T12 construct: for 8, we also made a longer version containing one or more additional domains; His-tag; made in house; host or cells: Escherichia coli
T12 sequence (Q13188 1-491): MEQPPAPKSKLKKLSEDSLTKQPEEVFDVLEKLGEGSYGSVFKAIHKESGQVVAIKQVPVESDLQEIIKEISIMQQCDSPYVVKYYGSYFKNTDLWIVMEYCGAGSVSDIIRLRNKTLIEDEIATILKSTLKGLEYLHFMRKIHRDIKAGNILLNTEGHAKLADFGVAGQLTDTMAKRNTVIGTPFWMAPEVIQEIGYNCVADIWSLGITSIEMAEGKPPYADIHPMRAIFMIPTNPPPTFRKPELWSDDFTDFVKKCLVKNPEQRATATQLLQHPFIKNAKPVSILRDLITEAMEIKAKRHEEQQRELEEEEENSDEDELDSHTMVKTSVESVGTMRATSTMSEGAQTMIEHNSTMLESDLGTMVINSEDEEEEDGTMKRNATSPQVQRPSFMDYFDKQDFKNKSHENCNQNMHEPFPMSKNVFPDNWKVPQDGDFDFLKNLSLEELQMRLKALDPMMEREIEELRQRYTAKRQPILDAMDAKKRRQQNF

[14] = target: T13, STK3 Catalytic Domain (Homo sapiens, UniProt Q13188); conditions: 2 µM protein, 10 µM inhibitor, average of 3 experiments, each in duplicate
T13 construct: For all of them, we expressed and purified the catalytic domain separately; His-tag; made in house; host or cells: Escherichia coli
T13 sequence (Q13188 27-278 limits assumed): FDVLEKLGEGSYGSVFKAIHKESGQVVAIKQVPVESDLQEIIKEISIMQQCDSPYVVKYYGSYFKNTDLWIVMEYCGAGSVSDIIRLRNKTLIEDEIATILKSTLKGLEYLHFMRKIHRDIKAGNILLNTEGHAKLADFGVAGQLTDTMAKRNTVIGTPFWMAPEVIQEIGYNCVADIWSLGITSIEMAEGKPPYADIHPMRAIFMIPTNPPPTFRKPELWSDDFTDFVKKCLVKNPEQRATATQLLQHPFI

[15] = target: SRC Catalytic Domain (Homo sapiens, UniProt P12931); set-up: For all of them, we expressed and purified the catalytic domain separately; His-tag; made in house; host or cells: Escherichia coli; conditions: 2 µM protein, 10 µM inhibitor, average of 3 experiments, each in duplicate

T1 sequence (Q9Y243 122-479): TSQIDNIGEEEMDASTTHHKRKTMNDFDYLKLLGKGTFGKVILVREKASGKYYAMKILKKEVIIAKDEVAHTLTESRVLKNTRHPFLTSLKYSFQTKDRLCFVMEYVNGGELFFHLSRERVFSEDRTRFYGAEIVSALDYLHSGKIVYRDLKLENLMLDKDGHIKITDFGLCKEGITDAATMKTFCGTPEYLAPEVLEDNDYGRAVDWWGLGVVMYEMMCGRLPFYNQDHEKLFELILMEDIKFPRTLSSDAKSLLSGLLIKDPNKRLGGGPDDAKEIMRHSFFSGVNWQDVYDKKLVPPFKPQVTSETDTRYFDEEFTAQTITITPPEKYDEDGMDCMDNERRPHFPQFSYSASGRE
T8 sequence (P07332 561-822 limits assumed): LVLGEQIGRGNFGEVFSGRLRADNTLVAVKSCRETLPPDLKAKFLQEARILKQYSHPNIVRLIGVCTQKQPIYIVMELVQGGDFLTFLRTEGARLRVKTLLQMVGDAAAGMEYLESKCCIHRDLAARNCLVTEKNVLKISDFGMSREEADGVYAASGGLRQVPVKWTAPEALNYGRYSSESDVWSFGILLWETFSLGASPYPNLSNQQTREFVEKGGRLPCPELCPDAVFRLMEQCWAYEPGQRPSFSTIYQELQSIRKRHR
T7 sequence (P07332 448-822 limits assumed): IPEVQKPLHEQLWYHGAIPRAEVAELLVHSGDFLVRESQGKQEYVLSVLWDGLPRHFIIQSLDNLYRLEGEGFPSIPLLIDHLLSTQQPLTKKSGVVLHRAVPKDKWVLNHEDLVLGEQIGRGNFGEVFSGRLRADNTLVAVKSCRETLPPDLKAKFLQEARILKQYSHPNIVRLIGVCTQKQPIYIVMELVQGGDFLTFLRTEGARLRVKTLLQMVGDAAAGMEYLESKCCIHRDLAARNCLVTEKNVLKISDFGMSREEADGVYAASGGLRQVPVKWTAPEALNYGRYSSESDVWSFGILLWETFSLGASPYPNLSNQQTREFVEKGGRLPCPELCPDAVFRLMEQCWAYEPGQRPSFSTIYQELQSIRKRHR
T11 sequence (Q9P286 449-700 limits assumed): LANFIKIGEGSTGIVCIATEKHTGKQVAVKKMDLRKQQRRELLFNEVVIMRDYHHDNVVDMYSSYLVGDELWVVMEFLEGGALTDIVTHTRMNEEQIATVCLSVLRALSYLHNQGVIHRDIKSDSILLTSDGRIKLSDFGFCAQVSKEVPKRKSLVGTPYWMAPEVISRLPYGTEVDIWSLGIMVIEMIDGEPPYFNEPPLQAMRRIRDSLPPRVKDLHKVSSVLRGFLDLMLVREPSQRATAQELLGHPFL
T10 sequence (O96013 321-572 limits assumed): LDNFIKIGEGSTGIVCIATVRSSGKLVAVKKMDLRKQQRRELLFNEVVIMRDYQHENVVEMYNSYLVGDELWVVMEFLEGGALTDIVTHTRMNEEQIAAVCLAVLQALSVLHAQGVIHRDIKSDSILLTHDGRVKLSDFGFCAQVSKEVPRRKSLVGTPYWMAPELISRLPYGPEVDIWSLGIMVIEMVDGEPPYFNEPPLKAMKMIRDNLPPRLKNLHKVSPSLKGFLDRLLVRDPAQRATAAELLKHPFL
T4 sequence (O96017 220-486 limits assumed): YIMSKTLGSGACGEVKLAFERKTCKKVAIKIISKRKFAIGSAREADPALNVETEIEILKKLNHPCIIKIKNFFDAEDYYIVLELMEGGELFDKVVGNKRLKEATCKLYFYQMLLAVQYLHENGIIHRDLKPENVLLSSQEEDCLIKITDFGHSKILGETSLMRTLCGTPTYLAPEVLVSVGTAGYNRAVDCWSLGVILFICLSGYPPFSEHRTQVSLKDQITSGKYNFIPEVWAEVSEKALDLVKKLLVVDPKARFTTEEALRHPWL
T6 sequence (Q14289 425-683 limits assumed): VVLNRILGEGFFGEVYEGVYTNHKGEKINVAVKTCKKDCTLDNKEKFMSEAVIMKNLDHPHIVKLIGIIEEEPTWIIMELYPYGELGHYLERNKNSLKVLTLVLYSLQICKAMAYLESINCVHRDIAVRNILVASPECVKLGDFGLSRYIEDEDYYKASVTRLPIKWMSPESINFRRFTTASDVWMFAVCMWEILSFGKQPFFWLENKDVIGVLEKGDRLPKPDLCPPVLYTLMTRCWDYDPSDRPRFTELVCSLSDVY
T9 sequence (O96013 whole entry, the tested form may be a part): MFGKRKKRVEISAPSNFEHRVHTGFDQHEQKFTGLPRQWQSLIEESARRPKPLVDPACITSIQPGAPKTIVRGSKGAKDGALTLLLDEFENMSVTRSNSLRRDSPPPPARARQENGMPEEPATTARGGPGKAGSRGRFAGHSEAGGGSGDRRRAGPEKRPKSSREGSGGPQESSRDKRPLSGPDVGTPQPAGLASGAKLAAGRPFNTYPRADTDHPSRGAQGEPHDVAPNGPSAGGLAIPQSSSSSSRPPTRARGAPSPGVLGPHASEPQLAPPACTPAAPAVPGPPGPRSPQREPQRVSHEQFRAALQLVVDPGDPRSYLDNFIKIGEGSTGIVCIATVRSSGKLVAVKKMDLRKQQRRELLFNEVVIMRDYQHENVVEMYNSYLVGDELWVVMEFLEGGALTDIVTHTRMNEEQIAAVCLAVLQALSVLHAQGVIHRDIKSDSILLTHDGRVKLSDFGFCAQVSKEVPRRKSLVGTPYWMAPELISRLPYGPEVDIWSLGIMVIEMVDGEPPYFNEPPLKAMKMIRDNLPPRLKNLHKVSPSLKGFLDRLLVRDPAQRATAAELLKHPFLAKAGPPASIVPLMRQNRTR

Compound | Melting temperature (Tm) shift [1] [degrees Celcius] | Melting temperature (Tm) shift [2] [degrees Celcius] | Melting temperature (Tm) shift [3] [degrees Celcius] | Melting temperature (Tm) shift [4] [degrees Celcius] | Melting temperature (Tm) shift [5] [degrees Celcius] | Melting temperature (Tm) shift [6] [degrees Celcius] | Melting temperature (Tm) shift [7] [degrees Celcius] | Melting temperature (Tm) shift [8] [degrees Celcius] | Melting temperature (Tm) shift [9] [degrees Celcius] | Melting temperature (Tm) shift [10] [degrees Celcius] | Melting temperature (Tm) shift [11] [degrees Celcius] | Melting temperature (Tm) shift [12] [degrees Celcius] | Melting temperature (Tm) shift [13] [degrees Celcius] | Melting temperature (Tm) shift [14] [degrees Celcius] | Melting temperature (Tm) shift [15] [degrees Celcius]
O=C(c1ccc(Nc2nccc(-c3cc4ccccc4s3)n2)cc1)N1CCC(N2CCCC2)CC1 [IKK Inhibitor VII] | 0.2 | 0.7 | 0.5 | 1.9 | 1.2 | 1.8 | 1.4 | 3.3 | 0.5 | 1.7 | 1.8 | 0.5 | 1.2 | 0.7 | 0.6
N#CCCc1ccc2c(c1)-c1[nH]c3ccc([N+](=O)[O-])cc3c1CC(=O)N2 [Alsterpaullone, 2-Cyanoethyl] | 0.1 | 0.5 | 0.5 | 1.9 | 3.4 | 0.6 | 0.3 | 1.3 | 0.3 | 0.9 | 1.3 | 0.3 | 1.5 | 1.7 | 0.2
O=C1NC(=O)C(c2c[nH]c3ccccc23)=C1c1c[nH]c2ccccc12 [Bisindolylmaleimide IV] | 0.0 | 0.9 | 0.7 | 4.1 | 2.7 | 0.1 | 0.9 | 0.5 | 0.0 | 0.4 | 0.1 | 0.0 | 2.0 | 0.9 | 0.3
NC(=O)Nc1sc(-c2ccc(F)cc2)cc1C(N)=O [IKK-2 Inhibitor IV] | 0.1 | 0.7 | 0.4 | 3.6 | 1.8 | 1.2 | 0.5 | 1.5 | 2.4 | 1.5 | 1.3 | 1.0 | 1.6 | 2.8 | 1.2

Continued, values first:

Melting temperature (Tm) shift [1] [degrees Celcius] | Melting temperature (Tm) shift [2] [degrees Celcius] | Melting temperature (Tm) shift [3] [degrees Celcius] | Melting temperature (Tm) shift [4] [degrees Celcius] | Melting temperature (Tm) shift [5] [degrees Celcius] | Melting temperature (Tm) shift [6] [degrees Celcius] | Melting temperature (Tm) shift [7] [degrees Celcius] | Melting temperature (Tm) shift [8] [degrees Celcius] | Melting temperature (Tm) shift [9] [degrees Celcius] | Melting temperature (Tm) shift [10] [degrees Celcius] | Melting temperature (Tm) shift [11] [degrees Celcius] | Melting temperature (Tm) shift [12] [degrees Celcius] | Melting temperature (Tm) shift [13] [degrees Celcius] | Melting temperature (Tm) shift [14] [degrees Celcius] | Melting temperature (Tm) shift [15] [degrees Celcius] | Compound
0.0 | 0.9 | 0.7 | 5.8 | 1.6 | 1.5 | 1.1 | 2.1 | 2.9 | 1.7 | 1.3 | 1.0 | 1.4 | 2.4 | 1.5 | NC(=O)Nc1cc(-c2ccccc2)sc1C(N)=O [IKK-2 Inhibitor XI]
0.0 | 0.7 | 0.4 | 5.2 | 0.9 | 0.4 | 0.4 | 2.0 | 2.2 | 1.7 | 0.9 | 0.2 | 2.0 | 2.0 | 0.1 | Cn1cc(/C=C2\C(=O)Nc3ccc(S(N)(=O)=O)cc32)c2ccccc21 [Syk Inhibitor]
0.1 | 0.2 | 0.8 | 5.9 | 2.2 | 0.3 | 0.2 | 0.2 | 1.5 | 0.7 | 1.0 | 0.1 | 3.7 | 1.1 | 0.1 | Wee1/Chk1 Inhibitor
0.1 | 0.0 | 0.2 | 0.2 | 0.6 | 0.3 | 0.3 | 0.1 | 0.5 | 0.4 | 0.0 | 0.0 | 0.5 | 0.0 | 0.2 | DNA-PK Inhibitor V
